Laboratory results reported in patent US20060084688A1, “Aromatic sulfone hydroxamic acid metalloprotease inhibitor” (priority 1997, published 2006).
Structures can show the parent of a compound that is named as a salt. Where two headings read alike, the source gives them in different places.

How the values were obtained:
[1] = Rat Intraveneous, 20 mpk
recombinant human MMP-2 = molecular target: T1, recombinant human MMP-2 (Homo sapiens, UniProt P08253); experiment: biochemical
T1 sequence (P08253 110-660): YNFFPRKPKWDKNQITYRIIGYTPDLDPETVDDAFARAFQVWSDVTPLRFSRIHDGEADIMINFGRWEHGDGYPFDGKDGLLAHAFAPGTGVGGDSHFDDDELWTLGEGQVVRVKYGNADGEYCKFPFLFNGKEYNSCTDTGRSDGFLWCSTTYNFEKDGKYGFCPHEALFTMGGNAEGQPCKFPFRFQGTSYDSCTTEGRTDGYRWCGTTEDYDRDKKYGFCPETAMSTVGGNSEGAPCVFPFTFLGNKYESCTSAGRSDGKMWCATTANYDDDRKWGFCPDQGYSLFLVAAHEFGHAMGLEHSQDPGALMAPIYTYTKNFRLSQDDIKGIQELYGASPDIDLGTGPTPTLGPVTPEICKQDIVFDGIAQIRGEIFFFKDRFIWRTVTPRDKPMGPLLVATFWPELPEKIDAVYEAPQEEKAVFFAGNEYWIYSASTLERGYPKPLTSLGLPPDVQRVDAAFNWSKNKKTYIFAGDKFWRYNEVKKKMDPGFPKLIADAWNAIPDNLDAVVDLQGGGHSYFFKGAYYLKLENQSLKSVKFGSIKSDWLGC

recombinant human MMP-13 = recombinant human MMP-13 (Homo sapiens, UniProt P45452); experiment: biochemical
recombinant human MMP-1 = molecular target: T2, recombinant human MMP-1 (Homo sapiens, UniProt P03956); experiment: biochemical
T2 construct: made in house; host or cells: transfected HT-1080 cells
T2 sequence (P03956 100-469): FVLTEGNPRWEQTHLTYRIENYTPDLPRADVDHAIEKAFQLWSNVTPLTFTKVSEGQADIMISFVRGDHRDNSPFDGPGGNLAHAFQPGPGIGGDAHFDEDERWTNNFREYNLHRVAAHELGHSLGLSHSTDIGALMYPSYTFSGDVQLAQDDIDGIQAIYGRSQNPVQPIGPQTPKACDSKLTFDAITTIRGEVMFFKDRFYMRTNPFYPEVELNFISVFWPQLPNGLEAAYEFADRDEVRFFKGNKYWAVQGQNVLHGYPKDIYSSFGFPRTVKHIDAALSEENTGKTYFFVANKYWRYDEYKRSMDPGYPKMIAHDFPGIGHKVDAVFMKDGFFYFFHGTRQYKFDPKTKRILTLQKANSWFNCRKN

IC50 (recombinant human MMP-2; room temperature, pH 7.5, 1 percent DMSO, 4 μM MCA peptide substrate, no asterisk) [nM]	IC50 (recombinant human MMP-13; room temperature, pH 7.5, 1 percent DMSO, 4 μM MCA peptide substrate) [nM]	IC50 (recombinant human MMP-1) [nM]	Compound	t1/2 [1] [h]	IC50 (recombinant human MMP-2; Inhibition Table B) [nM]	IC50 (recombinant human MMP-13; Inhibition Table B) [nM]	IC50 (recombinant human MMP-1; Inhibition Table B) [nM]
			O=C(NO)C1(S(=O)(=O)c2ccc(Oc3ccccc3)cc2)CCSCC1 [Example 109]	1.12			
			Cl.O=C(NO)C1(S(=O)(=O)c2ccc(Sc3ccccc3)cc2)CCN(C2CC2)CC1 [Example 32, 1-cyclopropyl-N-hydroxy-4-[[4-(phenylthio)phenyl]sulfonyl]-4-piperidine carboxamide, monohydrochloride]	1.03			
			Cl.O=C(NO)C1(S(=O)(=O)c2ccc(Sc3ccncc3)cc2)CCOCC1 [Example 104, Tetrahydro-N-hydroxy-4-[[4-(4-pyridinylthio)phenyl]sulfonyl]-2H-pyran-4-carboxamide, monohydrochloride]	0.66			
			CCOC(=O)C1CCCCN1C(=O)C1CCN(c2ccc(S(=O)(=O)C3(C(=O)NO)CCOCC3)cc2)CC1 (stereo not drawn) [Example 154]		1600	27	> 10000
			O=C(NO)C1(S(=O)(=O)c2ccc(-c3cccc([N+](=O)[O-])c3)cc2)CCOCC1 [Example 214]		< 1	< 1	1100
			CC1CCN(C(=O)C2CCN(c3ccc(S(=O)(=O)C4(C(=O)NO)CCOCC4)cc3)CC2)CC1 [Example 190]		220	10.6	> 10000
			O=C(C1CCCN(c2ccc(S(=O)(=O)C3(C(=O)NO)CCOCC3)cc2)C1)N1CCC(O)C1 (stereo not drawn) [Example 166]		> 1000	> 100	> 10000
			O=C(C1CCN(c2ccc(S(=O)(=O)C3(C(=O)NO)CCOCC3)cc2)CC1)N(Cc1ccccc1)Cc1ccccc1 [Example 198]		270	14.5	> 10000
			NCCCNC(=O)C1CCN(c2ccc(S(=O)(=O)C3(C(=O)NO)CCOCC3)cc2)CC1 [Example 133]		90	27	> 10000
			O=C(C1CCN(c2ccc(S(=O)(=O)C3(C(=O)NO)CCOCC3)cc2)CC1)N1CCC(O)(Cc2ccccc2)CC1 [Example 193]		390	6	> 10000
			O=C(NO)C1CCCN(c2ccc(S(=O)(=O)C3(C(=O)NO)CCOCC3)cc2)C1 (stereo not drawn) [Example 146]		650	32.6	> 10000
			O=C(C1CCCN(c2ccc(S(=O)(=O)C3(C(=O)NO)CCOCC3)cc2)C1)N1CCNCC1 (stereo not drawn) [Example 158]		5000	80	> 10000
			C#CCN1CCC(C(=O)NO)(S(=O)(=O)c2ccc([S+]([O-])c3ccccc3)cc2)CC1 (stereo not drawn) [Example 47b]		3000	3100	> 10000
			CCOC(=O)C1CCN(C(=O)C2CCN(c3ccc(S(=O)(=O)C4(C(=O)NO)CCOCC4)cc3)CC2)CC1 [Example 152]		2400	16.5	> 10000
			O=C(C1CCCN(c2ccc(S(=O)(=O)C3(C(=O)NO)CCOCC3)cc2)C1)N1CCCCCC1 (stereo not drawn) [Example 162]		> 1000	> 100	> 10000
			C#CCN1CCC(C(=O)O)(S(=O)(=O)c2ccc(Sc3ccc(Cl)cc3)cc2)CC1 [Example 44a, 4-[[4-(4-chlorophenyl)thio]phenyl)sulfonyl]-1-(propynyl)-4-piperidinecarboxylic acid, monohydrochloride]		< 0.1	0.2	> 10000
			O=C(C1CCN(c2ccc(S(=O)(=O)C3(C(=O)NO)CCOCC3)cc2)CC1)N1CCCCC1 [Example 149]		1600	15.5	> 10000
			O=C(C1CCN(c2ccc(S(=O)(=O)C3(C(=O)NO)CCOCC3)cc2)CC1)N1CCCC2CCCCC21 (stereo not drawn) [Example 177]		400	21	> 10000
			O=C(NCCO)C1CCCN(c2ccc(S(=O)(=O)C3(C(=O)NO)CCOCC3)cc2)C1 (stereo not drawn) [Example 141]		> 100	> 100	> 10000
			Cc1ccc(-c2ccc(S(=O)(=O)C3(C(=O)NO)CCOCC3)cc2)cc1C [Example 223]		< 1	< 1	1100
			O=C(C1CCN(c2ccc(S(=O)(=O)C3(C(=O)NO)CCOCC3)cc2)CC1)N1CCC(c2ccccc2)CC1 [Example 192]		330	10	> 10000
			O=C(C1CCN(c2ccc(S(=O)(=O)C3(C(=O)NO)CCOCC3)cc2)CC1)N1CCc2ccccc2C1 [Example 199]		155	1.4	> 10000

IC50 (recombinant human MMP-2; room temperature, pH 7.5, 1 percent DMSO, 4 μM MCA peptide substrate, no asterisk) [nM]	IC50 (recombinant human MMP-13; room temperature, pH 7.5, 1 percent DMSO, 4 μM MCA peptide substrate) [nM]	IC50 (recombinant human MMP-1) [nM]	Compound	t1/2 [1] [h]	IC50 (recombinant human MMP-2; Inhibition Table B) [nM]	IC50 (recombinant human MMP-13; Inhibition Table B) [nM]	IC50 (recombinant human MMP-1; Inhibition Table B) [nM]
			O=C(NCc1cccs1)C1CCN(c2ccc(S(=O)(=O)C3(C(=O)NO)CCOCC3)cc2)CC1 [Example 189]		94	8	3700
1.3	0.6	> 10000	O=C(NO)C1(S(=O)(=O)c2ccc(SC3CCCCC3)cc2)CCN(C2CC2)CC1 [Example 21]				
			C=CCN(CC=C)C(=O)C1CCN(c2ccc(S(=O)(=O)C3(C(=O)NO)CCOCC3)cc2)CC1 [Example 182]		240	4	> 10000
			CN1CCN(C(=O)C2CCCN(c3ccc(S(=O)(=O)C4(C(=O)NO)CCOCC4)cc3)C2)CC1 (stereo not drawn) [Example 157]		6000	90	> 10000
			CCNC(=O)C1CCCN(c2ccc(S(=O)(=O)C3(C(=O)NO)CCOCC3)cc2)C1 (stereo not drawn) [Example 143]		900	23.9	> 10000
			O=C(O)CNC(=O)C1CCN(c2ccc(S(=O)(=O)C3(C(=O)NO)CCOCC3)cc2)CC1 [Example 135]		500	65	> 10000
			O=C(C1CCN(c2ccc(S(=O)(=O)C3(C(=O)NO)CCOCC3)cc2)CC1)N1CCC(N2CCCC2)CC1 [Example 178]		540	> 100	> 10000
			CC(C)NC(=O)C1CCN(c2ccc(S(=O)(=O)C3(C(=O)NO)CCOCC3)cc2)CC1 [Example 184]		94	7	> 10000
			CCOC(=O)C1CCCCN1C(=O)C1CCCN(c2ccc(S(=O)(=O)C3(C(=O)NO)CCOCC3)cc2)C1 (stereo not drawn) [Example 161]		> 1000	> 100	> 10000
			CCOC(=O)C1CCN(C(=O)C2CCCN(c3ccc(S(=O)(=O)C4(C(=O)NO)CCOCC4)cc3)C2)CC1 (stereo not drawn) [Example 159]		2500	15.6	> 10000
			CN1CCN(C(=O)N2CCN(c3ccc(S(=O)(=O)C4(C(=O)NO)CCOCC4)cc3)CC2)CC1 [Example 210]		27	20	> 10000
			O=C(N1CCNCC1)N1CCN(c2ccc(S(=O)(=O)C3(C(=O)NO)CCOCC3)cc2)CC1 [Example 209]		19	20	> 10000
			CC1(C)C[C@@H]2C[C@@](C)(CN2C(=O)C2CCN(c3ccc(S(=O)(=O)C4(C(=O)NO)CCOCC4)cc3)CC2)C1 [Example 164]		1750	20	> 10000
			O=C(C1CCCN(c2ccc(S(=O)(=O)C3(C(=O)NO)CCOCC3)cc2)C1)N1CCCCC1 (stereo not drawn) [Example 156]		3300	27.8	> 10000
			CN(C)C(=O)C1CCCN(c2ccc(S(=O)(=O)C3(C(=O)NO)CCOCC3)cc2)C1 (stereo not drawn) [Example 155]		> 1000	> 100	> 10000
			CCN(CC)C(=O)C1CCN(c2ccc(S(=O)(=O)C3(C(=O)NO)CCOCC3)cc2)CC1 [Example 148]		2400	31	> 10000
			O=C(NO)C1(S(=O)(=O)c2ccc(-c3ccc(Cl)cc3)cc2)CCOCC1 [Example 216]		< 1	< 1	1000
			O=C(NN1CCOCC1)C1CCN(c2ccc(S(=O)(=O)C3(C(=O)NO)CCOCC3)cc2)CC1 [Example 185]		210	17.5	> 10000
			NCCCNC(=O)C1CCCN(c2ccc(S(=O)(=O)C3(C(=O)NO)CCOCC3)cc2)C1 (stereo not drawn) [Example 142]		600	70	> 10000
			O=C(NCc1cccnc1)C1CCN(c2ccc(S(=O)(=O)C3(C(=O)NO)CCOCC3)cc2)CC1 [Example 186]		120	10	> 10000
			O=C(C1CCN(c2ccc(S(=O)(=O)C3(C(=O)NO)CCOCC3)cc2)CC1)N1CCCCCC1 [Example 165]		330	13.6	> 10000
